These results are taken from ChEMBL document CHEMBL5532744, “2-Aminopyridines as Potent and Selective Nav1.8 Inhibitors Exhibiting Efficacy in a Nonhuman Primate Pain Model” (ACS Med Chem Lett, 2024).

Molecules are shown by their SMILES. ≈ marks a conversion by molar mass, not a printed value. Bounds are passed on as bounds.

Data set [1] is described as follows: Solubility of the compound at pH 7. The data set is classed as physicochemical. The note with it: buffer.
For data set [2], the target named is Sodium channel protein type 10 subunit alpha (Homo sapiens, UniProt Q9Y5Y9). The experiment in a line: Inhibition of recombinant human Nav1.8 expressed in HEK293 cells by whole cell patch clamp method. The data set is classed as cell-based.
The nature of data set [3]: Unbound clearance in rat at 0.05 mg/kg, iv administered as cassette dose. The data set is classed as ADME, organism-based. Particulars: in vivo.
Data set [4] can be described thus: Half-life in rat plasma at 0.05 mg/kg, iv administered as cassette dose. The data set is classed as ADME, organism-based.
Data set [5] can be described thus: Bioavailability in dog at 2 mg/kg, po or 1 mg/kg, iv. The data set is classed as ADME, organism-based, Canis lupus familiaris. Particulars: in vivo.
Data set [6] deals with Voltage-dependent L-type calcium channel subunit alpha-1C (Homo sapiens, UniProt Q13936). The data set can be described thus: Inhibition of Cav1.2 (unknown origin).
Data set [7] in a line: Unbound clearance in dog at 2 mg/kg, po. The data set is classed as ADME, organism-based, Canis lupus familiaris. The note with it: in vivo.
For data set [8], the target named is Sodium channel protein type 5 subunit alpha (Homo sapiens, UniProt Q14524). The experiment in a line: Inhibition of Nav1.5 (unknown origin).
Data set [9] is described as follows: Unbound volume of distribution in rat at 10 mg/kg, po. The data set is classed as ADME, organism-based. The note with it: in vivo.
Data set [10] can be described thus: Unbound drug concentration in rhesus monkey plasma at 18 mg/kg, po. The note with it: in vivo. The data set is classed as ADME, organism-based, Macaca mulatta.
Data set [11] in a line: Tmax in rat at 10 mg/kg, po or 2 mg/kg, iv. The data set is classed as ADME, organism-based. The note with it: in vivo.
Data set [12] in a line: Volume of distribution in rat at 2 mg/kg, iv. The data set is classed as ADME, organism-based. The note with it: in vivo.
A short description of data set [13]: Half life in rhesus monkey at 2 mg/kg, po or 1 mg/kg, iv. The data set is classed as ADME, organism-based, Macaca mulatta. The note with it: in vivo.
The nature of data set [14]: Bioavailability in rhesus monkey at 2 mg/kg, po or 1 mg/kg, iv. The data set is classed as ADME, organism-based, Macaca mulatta. Particulars: in vivo.
The nature of data set [15]: Clearance in rat at 2 mg/kg, iv. The data set is classed as ADME, organism-based. The note with it: in vivo.
Data set [16] is described as follows: Unbound drug concentration in rhesus monkey plasma at 2 mg/kg, po. The data set is classed as ADME, organism-based, Macaca mulatta. Particulars: in vivo.
The nature of data set [17]: Clearance in dog at 1 mg/kg, iv. Particulars: in vivo. The data set is classed as ADME, organism-based, Canis lupus familiaris.
Data set [18] is described as follows: Unbound clearance in rhesus monkey at 2 mg/kg, po. The note with it: in vivo. The data set is classed as ADME, organism-based, Macaca mulatta.
Data set [19] can be described thus: Unbound clearance in rat at 10 mg/kg, po. The data set is classed as ADME, organism-based. Particulars: in vivo.
The nature of data set [20]: Tmax in dog at 2 mg/kg, po or 1 mg/kg, iv. The note with it: in vivo. The data set is classed as ADME, organism-based, Canis lupus familiaris.
A short description of data set [21]: Half life in rat at 10 mg/kg, po or 2 mg/kg, iv. The data set is classed as ADME, organism-based. The note with it: in vivo.
Data set [22] is described as follows: Tmax in rhesus monkey at 2 mg/kg, po or 1 mg/kg, iv. The data set is classed as ADME, organism-based, Macaca mulatta. Particulars: in vivo.
Data set [23] can be described thus: Half life in dog at 2 mg/kg, po or 1 mg/kg, iv. The data set is classed as ADME, organism-based, Canis lupus familiaris. The note with it: in vivo.
The target in data set [24] is Sodium channel protein type 2 subunit alpha (Homo sapiens, UniProt Q99250). The experiment in a line: Inhibition of Nav1.2 (unknown origin).
A short description of data set [25]: Volume of distribution in rhesus monkey at 1 mg/kg, iv. The data set is classed as ADME, organism-based, Macaca mulatta. The note with it: in vivo.
The nature of data set [26]: Volume of distribution in dog at 1 mg/kg, iv. The data set is classed as ADME, organism-based, Canis lupus familiaris. Particulars: in vivo.
The nature of data set [27]: Unbound volume of distribution in rhesus monkey at 2 mg/kg, po. The note with it: in vivo. The data set is classed as ADME, organism-based, Macaca mulatta.
Data set [28] can be described thus: Bioavailability in rat at 10 mg/kg, po or 2 mg/kg, iv. The data set is classed as ADME, organism-based. Particulars: in vivo.
For data set [29], the target named is Sodium channel protein type 8 subunit alpha (Homo sapiens, UniProt Q9UQD0). The experiment in a line: Inhibition of Nav1.6 (unknown origin).
Data set [30] addresses Voltage-gated inwardly rectifying potassium channel KCNH2 (Homo sapiens, UniProt Q12809). The data set can be described thus: Inhibition of hERG. The data set is classed as toxicity.
Data set [31] is described as follows: Drug concentration in rhesus monkey plasma at 6 mg/kg, po. The data set is classed as ADME, organism-based, Macaca mulatta. The note with it: in vivo.
A short description of data set [32]: Unbound volume of distribution in dog at 2 mg/kg, po. The data set is classed as ADME, organism-based, Canis lupus familiaris. The note with it: in vivo.
A short description of data set [33]: Drug concentration in rhesus monkey plasma at 2 mg/kg, po. The data set is classed as ADME, organism-based, Macaca mulatta. Particulars: in vivo.
Data set [34] can be described thus: Drug concentration in rhesus monkey plasma at 18 mg/kg, po. The data set is classed as ADME, organism-based, Macaca mulatta. Particulars: in vivo.
Data set [35] can be described thus: Clearance in rhesus monkey at 1 mg/kg, iv. The data set is classed as ADME, organism-based, Macaca mulatta. The note with it: in vivo.
Data set [36] is described as follows: Apparent permeability of compound. The data set is classed as ADME. The note with it: not told.
Data set [37] can be described thus: Unbound drug concentration in rhesus monkey plasma at 6 mg/kg, po. The data set is classed as ADME, organism-based, Macaca mulatta. Particulars: in vivo.
Data set [38] concerns the target Sodium channel protein type 9 subunit alpha (Homo sapiens, UniProt Q15858). The data set can be described thus: Inhibition of Nav1.7 (unknown origin).
Data set [39] deals with Sodium channel protein type 10 subunit alpha (Rattus norvegicus, UniProt Q62968). The experiment in a line: Inhibition of rat neuronal Nav1.8 by patch clamp electrophysiology.

Sequence of Sodium channel protein type 5 subunit alpha (Q14524 whole entry): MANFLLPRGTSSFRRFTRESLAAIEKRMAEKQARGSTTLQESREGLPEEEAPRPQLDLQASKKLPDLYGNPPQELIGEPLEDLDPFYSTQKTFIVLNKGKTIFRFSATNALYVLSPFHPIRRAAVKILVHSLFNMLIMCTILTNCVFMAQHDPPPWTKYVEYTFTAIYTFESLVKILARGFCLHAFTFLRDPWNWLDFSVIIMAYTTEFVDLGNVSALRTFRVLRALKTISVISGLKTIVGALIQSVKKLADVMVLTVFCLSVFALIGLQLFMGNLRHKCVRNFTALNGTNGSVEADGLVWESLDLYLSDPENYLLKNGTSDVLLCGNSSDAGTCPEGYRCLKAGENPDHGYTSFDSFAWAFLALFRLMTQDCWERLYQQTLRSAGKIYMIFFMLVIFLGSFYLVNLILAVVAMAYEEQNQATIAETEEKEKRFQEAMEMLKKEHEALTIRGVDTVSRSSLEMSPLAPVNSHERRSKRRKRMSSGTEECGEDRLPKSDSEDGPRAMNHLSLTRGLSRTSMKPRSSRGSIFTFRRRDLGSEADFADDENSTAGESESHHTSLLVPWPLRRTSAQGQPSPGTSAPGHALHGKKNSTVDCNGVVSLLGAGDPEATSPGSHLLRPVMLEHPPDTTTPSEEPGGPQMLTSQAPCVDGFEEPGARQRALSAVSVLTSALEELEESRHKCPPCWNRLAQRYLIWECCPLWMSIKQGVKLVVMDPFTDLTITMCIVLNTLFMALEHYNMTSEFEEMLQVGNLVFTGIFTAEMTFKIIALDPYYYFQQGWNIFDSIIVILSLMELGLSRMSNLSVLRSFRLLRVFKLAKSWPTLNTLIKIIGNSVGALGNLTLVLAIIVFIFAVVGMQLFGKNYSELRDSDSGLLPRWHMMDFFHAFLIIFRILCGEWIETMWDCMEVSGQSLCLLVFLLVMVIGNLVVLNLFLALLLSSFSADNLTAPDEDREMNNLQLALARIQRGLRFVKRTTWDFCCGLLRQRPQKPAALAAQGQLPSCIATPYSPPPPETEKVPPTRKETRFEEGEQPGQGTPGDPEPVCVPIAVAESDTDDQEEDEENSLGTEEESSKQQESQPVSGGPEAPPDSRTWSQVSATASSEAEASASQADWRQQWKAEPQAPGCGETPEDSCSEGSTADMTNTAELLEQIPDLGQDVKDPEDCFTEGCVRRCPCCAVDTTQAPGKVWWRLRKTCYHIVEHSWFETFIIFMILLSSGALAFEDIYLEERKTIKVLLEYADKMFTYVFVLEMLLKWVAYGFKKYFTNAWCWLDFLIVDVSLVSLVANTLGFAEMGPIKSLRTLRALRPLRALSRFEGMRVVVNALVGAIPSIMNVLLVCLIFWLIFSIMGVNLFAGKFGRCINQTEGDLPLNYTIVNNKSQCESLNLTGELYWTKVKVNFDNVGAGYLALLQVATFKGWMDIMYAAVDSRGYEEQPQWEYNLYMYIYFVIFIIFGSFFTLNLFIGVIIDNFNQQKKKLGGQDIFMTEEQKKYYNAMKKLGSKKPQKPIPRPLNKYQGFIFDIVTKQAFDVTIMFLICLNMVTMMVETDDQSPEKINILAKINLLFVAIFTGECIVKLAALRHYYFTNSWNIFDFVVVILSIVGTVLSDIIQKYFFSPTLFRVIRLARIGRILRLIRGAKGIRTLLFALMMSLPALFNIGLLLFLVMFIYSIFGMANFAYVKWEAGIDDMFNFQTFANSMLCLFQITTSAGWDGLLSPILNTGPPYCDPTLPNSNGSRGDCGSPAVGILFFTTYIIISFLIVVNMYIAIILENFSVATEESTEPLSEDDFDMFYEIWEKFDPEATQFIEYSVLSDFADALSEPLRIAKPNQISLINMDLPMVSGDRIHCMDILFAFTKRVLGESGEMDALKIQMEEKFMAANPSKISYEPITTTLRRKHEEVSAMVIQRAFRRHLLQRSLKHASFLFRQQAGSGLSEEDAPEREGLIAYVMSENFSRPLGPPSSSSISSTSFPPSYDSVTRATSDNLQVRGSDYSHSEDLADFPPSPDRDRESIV
Sequence of Sodium channel protein type 8 subunit alpha (Q9UQD0 whole entry): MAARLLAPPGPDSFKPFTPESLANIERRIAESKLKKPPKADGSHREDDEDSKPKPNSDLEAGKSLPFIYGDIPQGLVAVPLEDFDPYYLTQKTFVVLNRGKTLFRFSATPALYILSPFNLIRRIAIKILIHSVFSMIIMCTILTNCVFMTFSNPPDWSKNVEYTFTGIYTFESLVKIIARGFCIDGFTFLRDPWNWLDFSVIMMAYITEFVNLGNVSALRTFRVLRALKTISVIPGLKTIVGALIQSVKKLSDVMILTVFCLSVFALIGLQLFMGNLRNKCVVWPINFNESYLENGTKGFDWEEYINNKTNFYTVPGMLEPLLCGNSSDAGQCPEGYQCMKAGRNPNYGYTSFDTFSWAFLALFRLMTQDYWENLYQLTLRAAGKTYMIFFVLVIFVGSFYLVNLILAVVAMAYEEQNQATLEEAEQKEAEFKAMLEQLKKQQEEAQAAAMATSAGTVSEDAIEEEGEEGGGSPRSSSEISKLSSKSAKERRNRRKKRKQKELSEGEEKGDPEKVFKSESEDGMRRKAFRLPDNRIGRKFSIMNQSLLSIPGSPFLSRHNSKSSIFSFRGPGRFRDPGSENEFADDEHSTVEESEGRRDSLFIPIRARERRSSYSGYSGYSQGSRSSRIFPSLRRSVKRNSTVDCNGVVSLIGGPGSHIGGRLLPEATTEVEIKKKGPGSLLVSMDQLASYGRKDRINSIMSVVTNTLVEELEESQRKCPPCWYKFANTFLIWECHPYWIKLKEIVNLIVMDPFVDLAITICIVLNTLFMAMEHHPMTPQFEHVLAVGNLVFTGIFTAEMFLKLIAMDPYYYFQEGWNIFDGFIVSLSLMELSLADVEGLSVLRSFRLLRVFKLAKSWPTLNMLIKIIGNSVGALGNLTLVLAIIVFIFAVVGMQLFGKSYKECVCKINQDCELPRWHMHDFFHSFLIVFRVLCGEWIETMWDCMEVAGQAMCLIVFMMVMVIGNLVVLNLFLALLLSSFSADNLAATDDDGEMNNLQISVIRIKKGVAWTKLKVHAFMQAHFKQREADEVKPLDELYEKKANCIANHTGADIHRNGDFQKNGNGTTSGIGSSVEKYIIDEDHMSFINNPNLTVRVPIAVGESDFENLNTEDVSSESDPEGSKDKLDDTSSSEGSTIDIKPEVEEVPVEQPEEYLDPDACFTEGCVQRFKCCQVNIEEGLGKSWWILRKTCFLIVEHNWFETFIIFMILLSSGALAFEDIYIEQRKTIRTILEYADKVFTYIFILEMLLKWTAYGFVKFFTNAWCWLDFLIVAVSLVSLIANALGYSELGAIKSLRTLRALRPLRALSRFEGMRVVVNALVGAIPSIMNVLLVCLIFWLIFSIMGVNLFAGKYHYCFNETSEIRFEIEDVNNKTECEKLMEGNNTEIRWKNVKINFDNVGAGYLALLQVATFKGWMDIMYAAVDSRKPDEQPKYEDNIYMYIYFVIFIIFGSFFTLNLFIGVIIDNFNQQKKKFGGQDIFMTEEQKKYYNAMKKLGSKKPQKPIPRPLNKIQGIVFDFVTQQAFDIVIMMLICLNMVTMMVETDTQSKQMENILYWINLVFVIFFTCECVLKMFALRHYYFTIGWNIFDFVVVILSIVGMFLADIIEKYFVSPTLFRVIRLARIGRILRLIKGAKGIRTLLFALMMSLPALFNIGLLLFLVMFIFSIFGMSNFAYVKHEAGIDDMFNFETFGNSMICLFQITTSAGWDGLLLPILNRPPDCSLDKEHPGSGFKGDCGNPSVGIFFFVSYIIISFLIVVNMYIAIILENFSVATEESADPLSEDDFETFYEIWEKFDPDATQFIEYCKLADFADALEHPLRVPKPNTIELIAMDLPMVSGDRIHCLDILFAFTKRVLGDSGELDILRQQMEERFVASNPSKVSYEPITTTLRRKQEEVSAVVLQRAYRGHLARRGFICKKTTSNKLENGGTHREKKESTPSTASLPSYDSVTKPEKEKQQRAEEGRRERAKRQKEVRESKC
Sequence of Voltage-gated inwardly rectifying potassium channel KCNH2 (Q12809 whole entry): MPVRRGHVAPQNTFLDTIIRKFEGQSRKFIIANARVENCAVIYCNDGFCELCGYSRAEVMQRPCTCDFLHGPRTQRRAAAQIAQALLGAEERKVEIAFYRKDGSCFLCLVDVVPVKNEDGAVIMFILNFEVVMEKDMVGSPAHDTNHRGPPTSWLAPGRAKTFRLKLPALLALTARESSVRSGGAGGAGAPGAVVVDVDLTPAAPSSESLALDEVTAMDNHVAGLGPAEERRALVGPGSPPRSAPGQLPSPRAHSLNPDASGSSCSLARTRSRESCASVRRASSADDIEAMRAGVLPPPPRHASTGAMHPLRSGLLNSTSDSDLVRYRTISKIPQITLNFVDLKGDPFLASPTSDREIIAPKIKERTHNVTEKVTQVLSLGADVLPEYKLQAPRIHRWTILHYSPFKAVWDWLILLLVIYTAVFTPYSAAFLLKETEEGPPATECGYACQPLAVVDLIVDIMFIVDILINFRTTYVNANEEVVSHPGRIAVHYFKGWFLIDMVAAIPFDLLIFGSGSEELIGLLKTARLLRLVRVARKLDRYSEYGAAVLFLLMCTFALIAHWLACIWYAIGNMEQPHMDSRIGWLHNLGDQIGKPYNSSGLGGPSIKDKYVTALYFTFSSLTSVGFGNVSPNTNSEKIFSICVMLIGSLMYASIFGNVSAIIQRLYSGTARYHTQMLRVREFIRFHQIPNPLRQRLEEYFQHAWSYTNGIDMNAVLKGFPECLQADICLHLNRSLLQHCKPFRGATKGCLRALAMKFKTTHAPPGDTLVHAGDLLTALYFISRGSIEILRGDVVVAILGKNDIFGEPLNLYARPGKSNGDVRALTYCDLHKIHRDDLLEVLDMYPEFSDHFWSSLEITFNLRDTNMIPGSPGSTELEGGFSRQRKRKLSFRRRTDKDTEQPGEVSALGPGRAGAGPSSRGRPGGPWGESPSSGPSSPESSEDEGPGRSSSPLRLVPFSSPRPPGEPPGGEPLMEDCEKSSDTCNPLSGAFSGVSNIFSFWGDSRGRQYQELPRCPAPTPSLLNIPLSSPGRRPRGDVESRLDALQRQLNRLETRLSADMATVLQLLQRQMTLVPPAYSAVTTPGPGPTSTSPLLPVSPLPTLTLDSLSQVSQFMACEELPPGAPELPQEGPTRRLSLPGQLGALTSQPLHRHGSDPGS

Take `NS(=O)(=O)c1cccc(NC(=O)c2cc(C(F)(F)F)cnc2N2CCCC(F)(F)C2)c1`: the solubility in [1] came to 160 µM (≈ 74.3 µg/mL). In addition, the EC50 in data set [2] stood at 240 nM. In data set [3], this molecule had a CL free of 210 mL/min/kg. The half-life in [4] is 1.1 h.
In turn, `Cc1cnc(N2CCCCC2)c(C(=O)Nc2cccc(S(N)(=O)=O)c2)c1` showed a solubility in data set [1] of 14 µM (≈ 5.24 µg/mL). Also, the EC50 in data set [2] was found to be 14000 nM.
In the case of `NS(=O)(=O)c1cccc(NC(=O)c2cc(C(F)(F)F)cnc2N2CCC(F)(F)CC2)c1`, the bioavailability in data set [5] amounted to 45%; in data set [14], 77%; in data set [28] it was 82%. In addition, the IC50 in [6] was 27000 nM; in data set [30] it was greater than 30000 nM. For the same molecule, the CL free in [7] came out at 40 mL/min/kg; in [18] it was 62 mL/min/kg; in data set [19] it was 100 mL/min/kg; in data set [3], 100 mL/min/kg. Besides, the EC50 in data set [8] was greater than 30000 nM; in data set [2] it was 42 nM; in data set [24] it was greater than 30000 nM; in data set [29], greater than 30000 nM. The Vdu in [9] was 19 L/kg; in data set [27] it was 33 L/kg; in [32], 30 L/kg. Also, the concentration in solution in data set [1] (solubility) was 150 µM (≈ 69.7 µg/mL). In addition, the “Cp(f)” value in [10] is 948 nM; in [16] it was 111 nM; in data set [37] it was 312 nM. Also, the Tmax in data set [11] came to 2.5 h; in data set [20] it was 1.5 h; in data set [22], 2.5 h. Also, the Vd in data set [12] turned out to be 1.3 L/kg; in [25], 1.68 L/kg; in data set [26], 0.73 L/kg. For the same molecule, the half-life in [13] is 6.6 h; in [21], 2.2 h; in data set [23] it was 8.8 h; in [4], 3.3 h. The clearance in data set [15] amounted to 7.1 mL/min/kg; in data set [17], 0.96 mL/min/kg; in data set [35], 3.15 mL/min/kg. For the same molecule, the concentration in [31] came to 6110 nM; in [33], 2180 nM; in data set [34] it was 18600 nM. Moreover, the Papp in data set [36] was determined as 28 ×10⁻⁶ cm/s.
Turning to `CC(C)(C)c1cc(C(=O)Nc2cccc(S(N)(=O)=O)c2)n(Cc2ccccc2)n1`, the EC50 in [8] and in data set [29] was greater than 30000 nM each time. In addition, the IC50 was greater than 30000 nM in data set [38] and 80 nM in data set [39].
The molecule `NS(=O)(=O)c1cccc(NC(=O)c2cc(C(F)(F)F)cnc2N2CCCC(F)(F)CC2)c1` yielded a solubility in data set [1] of 110 µM (≈ 52.6 µg/mL). The CL free in data set [3] came out at 600 mL/min/kg. In addition, in data set [4], the half-life is 1.1 h.
Take `NS(=O)(=O)c1cccc(NC(=O)c2cc(C(F)(F)F)cnc2N2CCCC2)c1`: the concentration in solution in data set [1] (solubility) was 160 µM (≈ 66.3 µg/mL). Moreover, in data set [2], the EC50 came out at 2000 nM.
Molecule `NS(=O)(=O)c1cccc(NC(=O)c2cc(C(F)(F)F)cnc2N2CCC3(CC2)CC3)c1` displayed a solubility in [1] of 53 µM (≈ 24.1 µg/mL). Moreover, the EC50 in data set [2] amounted to 32 nM. For the same molecule, the CL free in data set [3] was 250 mL/min/kg. This molecule showed a half-life in data set [4] of 2.8 h.
For the molecule `NS(=O)(=O)c1cccc(NC(=O)c2cccnc2N2CCCCC2)c1`, the EC50 in data set [2] was 22000 nM.
In the case of `NS(=O)(=O)c1cccc(NC(=O)c2cc(C(F)(F)F)cnc2N2CCCC3(CC3)C2)c1`, the solubility in [1] came to 68 µM (≈ 30.9 µg/mL). Also, the concentration giving a half-maximal response (EC50) in [2] is 34 nM. The same molecule returned a CL free in data set [3] of 1800 mL/min/kg. The molecule also showed a half-life in data set [4] of 0.72 h.
With `NS(=O)(=O)c1cccc(NC(=O)c2cc3ccccc3nc2N2CCOCC2)c1`, the EC50 in data set [2] was determined as 2000 nM.
Molecule `NS(=O)(=O)c1cccc(NC(=O)c2ccc(C(F)(F)F)nc2N2CCCCC2)c1` had a solubility in [1] of 91 µM (≈ 39 µg/mL). Also, in data set [2], the EC50 was found to be 290 nM. For the same molecule, the CL free in [3] was 1300 mL/min/kg. The molecule also showed a half-life in data set [4] of 0.89 h.
For `Cc1cc(C(=O)Nc2cccc(S(N)(=O)=O)c2)c(N2CCCCC2)nc1C` the same measures were 11 µM (≈ 4.27 µg/mL), 320 nM, 2900 mL/min/kg and 0.57 h.
For `NS(=O)(=O)c1cccc(NC(=O)c2cc(C(F)(F)F)cnc2N2CCCCC2)c1` the same measures were 120 µM (≈ 51.4 µg/mL), 220 nM, 370 mL/min/kg and 1.5 h.
`CN1CCN(c2nc3ccccc3nc2C(=O)Nc2cccc(S(N)(=O)=O)c2)CC1`: in data set [2], the EC50 is greater than 30000 nM.
The same measure, in the same setting: as for `NS(=O)(=O)c1cccc(NC(=O)c2nc3ccccc3nc2N2CCCCC2)c1`, the figure is 110 nM.
With `COc1ccccc1NC(=O)c1nc2ccccc2nc1N1CCCCC1`, the EC50 in [8] and in data set [29] was greater than 30000 nM in each case. For the same molecule, the results for the IC50 in data set [38] and in data set [39] were greater than 30000 nM and 21000 nM, respectively.
As to `NS(=O)(=O)c1cccc(NC(=O)c2cc(C(F)(F)F)cnc2N2CCCCCC2)c1`, the solubility in data set [1] amounted to 120 µM (≈ 53.1 µg/mL). Besides, the EC50 in data set [2] came out at 12 nM. The molecule further had a CL free in data set [3] of 1800 mL/min/kg. This molecule gave a half-life in data set [4] of 0.62 h.
In the same order, the values of `Cc1ccc(C(=O)Nc2cccc(S(N)(=O)=O)c2)c(N2CCCCC2)n1` are 58 µM (≈ 21.7 µg/mL), 860 nM, 1100 mL/min/kg and 0.55 h.
Regarding `CN1CCN(c2nc3ccccc3cc2C(=O)Nc2cccc(S(N)(=O)=O)c2)CC1`, the EC50 in data set [2] is 20000 nM.
